Patent publication US11873291B2, “Quinoline cGAS antagonist compounds” (ImmuneSensor Therapeutics, Inc., priority 2020, dated 2024)
Read-outs that look alike come from different tables or passages of the source.

Key:
[1] = tested on: cGAS activity in Reporter THP1 cell line; test: Cellular assay to measure cGAS activity: ISRE-Gaussia luciferase reporter THP1 cells transfected with ISD; format: cell-based; settings: Homo sapiens
Experimental: Cellular assay to measure cGAS activity: Reporter THP1 cell line harboring a gene encoding Gaussia Luciferase under the control of 5 tandem repeats of interferon-stimulated response elements (ISRE) fused to an ISG54 minimal promoter was used to test inhibition of cGAS activity by synthetic compounds in human cells. These cells were plated on 96-well plates at 0.3×10^6/well and incubated with serial dilutions of compounds or DMSO for 5 min, followed by transfection of 2 μg/mL of ISD (Interferon Stimulatory DNA, a 45 bp DNA oligo) or mock transfected using lipofectamine 2000 (Life Technology) method, according to manufacturer's instructions. 16 hours later, 15 μL of the media from each well was transferred to a new plate, 50 μL of solution containing 50 mM Hepes-NaOH, pH 6.5, 50 mM NaCl, 10 mM EDTA, 1 μM of coelenterazine was added to each well and luminescence was measured immediately. Fold increase in luminescence compared to mock transfection was plotted against concentrations of each compound, and IC50 is calculated using Graphpad. To evaluate the specificity of a compound, the same procedure was performed except that cells were transfected with 2 μg/mL poly(I:C) or infected with Sendai Virus (SeV) at 50 Unit/mL, which are known to activate the RIG-I-MAVS pathway. A specific inhibitory compound should inhibit interferon induction by DNA but have minimal effect on poly(I:C) or Sendai virus induced interferon reporter gene expression.
The letter codes for cGAS IC50 include: A (<2 μM); B (2-10 μM); C (>10 μM).

[2] = target: T1, recombinant human cGAS (aa147-522) (Homo sapiens, UniProt Q8N884); test: In vitro inhibition assay of cGAS activity (ATP consumption, KinaseGlo Max); format: biochemical
T1 construct: recombinant human cGAS (aa147-522); His6-SUMO (cleaved yes); made in house; host or cells: E. coli BL21/pLys
Outline: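 IC50 came from plotting % ATP consumption against log compound concentration, with leftover ATP detected by KinaseGlo Max chemiluminescence. Reactions ran 20 min at 37 °C with 1.5 μg/mL human cGAS (aa147-522), 6.6 μM ATP, 0.1 mM GTP and 0.01 mg/mL DNA at pH 7.5.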

[3] = THP-1, Table 4, Gaussia luciferase
[4] = Table 3, read-out: cGAS Inhibition Results IC50
[5] = THP-1, untitled table after Table 4 (continuation)
[6] = Table 2, read-out: cGAS Inhibition Results IC50

T1 sequence (Q8N884 147-522): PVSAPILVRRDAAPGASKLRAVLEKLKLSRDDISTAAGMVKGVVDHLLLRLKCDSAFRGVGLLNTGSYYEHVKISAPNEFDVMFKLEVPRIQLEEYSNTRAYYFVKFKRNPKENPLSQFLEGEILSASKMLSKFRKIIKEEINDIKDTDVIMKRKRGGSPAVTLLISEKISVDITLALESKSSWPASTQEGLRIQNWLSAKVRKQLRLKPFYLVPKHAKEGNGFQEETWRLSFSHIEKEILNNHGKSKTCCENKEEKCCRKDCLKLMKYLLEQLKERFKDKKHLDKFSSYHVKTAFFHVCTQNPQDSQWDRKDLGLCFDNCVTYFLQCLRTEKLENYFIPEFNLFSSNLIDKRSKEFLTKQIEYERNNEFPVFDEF

SMILES	IC50 [1, 3]	IC50 [2, 4]	IC50 [1, 5]	IC50 [2, 6]
CC1CCN(c2cc(-n3ccnc3)c3ccc(Cl)c(Cl)c3n2)C1C(=O)O (stereo not shown) [I-473]	< 2000 nM	< 2000 nM		
O=C(O)CCCCCCNc1cc(-n2ccnc2)c2ccc(Cl)c(Cl)c2n1 [I-831]		< 2000 nM	2000 to 10000 nM	
O=C(O)CCOC[C@@H]1CCCN(c2cc(-c3cn[nH]c3)c3ccc(Cl)c(Cl)c3n2)C1 [I-747]	< 2000 nM	< 2000 nM		
COC(=O)CCOC[C@@H]1CCCN1c1cc(-c2cn[nH]c2)c2ccc(Cl)c(Cl)c2n1 [I-671]	< 2000 nM	< 2000 nM		
CC1(C)C[C@@H](COCCC(=O)O)N(c2cc(-n3ccnc3)c3ccc(Cl)c(Cl)c3n2)C1 [I-794]		< 2000 nM	< 2000 nM	
O=C(O)CCOCC1CC(F)CN(c2cc(-n3ccnc3)c3ccc(Cl)c(Cl)c3n2)C1 (stereo not shown) [I-749]	< 2000 nM	< 2000 nM		
CN(CCCOc1ccccc1C(=O)O)c1cc(-n2ccnc2)c2ccc(Cl)c(Cl)c2n1 [I-846]		< 2000 nM	< 2000 nM	
O=C(O)[C@@H]1CCCN1c1cc(-n2ccnc2)c2ccc(Cl)c(Cl)c2n1 [I-428]	2000 to 10000 nM			< 2000 nM
O=C(O)COCC[C@@H]1CC[C@@H](C(=O)O)N1c1cc(-n2ccnc2)c2ccc(Cl)c(Cl)c2n1 [I-715, (2S,5S)-5-(2-(carboxymethoxy)ethyl)-1-(7,8-dichloro-4-(1H-imidazol-1-yl)quinolin-2-yl)pyrrolidine-2-carboxylic acid]	> 10000 nM	< 2000 nM		
O=C(O)CCOC[C@@H]1C[C@@H](N2CCOCC2)CN1c1cc(-n2ccnc2)c2ccc(Cl)c(Cl)c2n1 [I-799]		< 2000 nM	> 10000 nM	
COc1ccc2c(-n3ccnc3)cc(N3CCC[C@H]3COCCC(=O)O)nc2c1Cl [I-856]		< 2000 nM	2000 to 10000 nM	
CCOC(=O)[C@@H]1[C@@H](O)CCN1c1cc(-n2ccnc2)c2ccc(Cl)c(Cl)c2n1 [I-599]	< 2000 nM	2000 to 30000 nM		
O=C(COC[C@@H]1CCCN1c1cc(-n2ccnc2)c2ccc(Cl)c(Cl)c2n1)NO [I-761]		< 2000 nM	> 10000 nM	
CCCCOC(=O)[C@@H]1[C@@H](O)CCN1c1cc(-n2ccnc2)c2ccc(Cl)c(Cl)c2n1 [I-601]	< 2000 nM	2000 to 30000 nM		
O=C(O)CCC(=O)NNc1cc(-n2ccnc2)c2ccc(Cl)c(Cl)c2n1 [I-759]		< 2000 nM	> 10000 nM	
COC(=O)[C@@H]1C[C@@H](C)CN1c1cc(-n2ccnc2)c2ccc(Cl)c(Cl)c2n1 [I-585]	< 2000 nM	2000 to 30000 nM		
O=C(O)CCOC[C@@H]1C[C@@H]2C[C@@H]2N1c1cc(-n2ccnc2)c2ccc(Cl)c(Cl)c2n1 [I-707]	< 2000 nM	< 2000 nM		
O=C(O)CCOC[C@H](O)[C@@H]1CCCN1c1cc(-n2ccnc2)c2ccc(Cl)c(Cl)c2n1 [I-724, 3-((R)-2-((S)-1-(7,8-dichloro-4-(1H-imidazol-1-yl)quinolin-2-yl)pyrrolidin-2-yl)-2-hydroxyethoxy)propanoic acid]	2000 to 10000 nM	< 2000 nM		
O=C(O)C1CCCCC1OC[C@@H]1CCCN1c1cc(-n2ccnc2)c2ccc(Cl)c(Cl)c2n1 (stereo partly shown) [I-815]		< 2000 nM	2000 to 10000 nM	

SMILES	IC50 [1, 3]	IC50 [2, 4]	IC50 [1, 5]	IC50 [2, 6]
O=C(O)Cc1cccc(OC[C@@H]2CCCN2c2cc(-n3ccnc3)c3ccc(Cl)c(Cl)c3n2)c1 [I-736]	< 2000 nM	< 2000 nM		
NS(=O)(=O)C1CCCN(c2cc(-n3ccnc3)c3ccc(Cl)c(Cl)c3n2)C1 (stereo not shown) [I-116]	2000 to 10000 nM			< 2000 nM
O=C(O)c1ccn(C[C@@H]2CCCN2c2cc(-n3ccnc3)c3ccc(Cl)c(Cl)c3n2)c1 [I-732]	< 2000 nM	< 2000 nM		
O=C(O)Cc1cccc(CNc2cc(-n3ccnc3)c3ccc(Cl)c(Cl)c3n2)c1 [I-844]		< 2000 nM	< 2000 nM	
O=C(O)CCOC[C@H]1CC2CCC1N2c1cc(-n2ccnc2)c2ccc(Cl)c(Cl)c2n1 (stereo partly shown) [I-811]		< 2000 nM	< 2000 nM	
O=C(O)CCCCCNc1cc(-c2cn[nH]c2)c2ccc(Cl)c(Cl)c2n1 [I-830]		< 2000 nM	< 2000 nM	
O=C(O)COC[C@@H]1CN(c2cc(-n3ccnc3)c3ccc(Cl)c(Cl)c3n2)CCO1 [I-742]	> 10000 nM	< 2000 nM		
O=C(O)CCOC[C@@H]1C[C@H](Oc2ccccc2)CN1c1cc(-n2ccnc2)c2ccc(Cl)c(Cl)c2n1 [I-713]	< 2000 nM	< 2000 nM		
O=C(O)C[C@@H]1[C@@H](O)CCN1c1cc(-n2ccnc2)c2ccc(Cl)c(Cl)c2n1 [I-785, 2-((2R,3S)-1-(7,8-dichloro-4-(1H-imidazol-1-yl)quinolin-2-yl)-3-hydroxypyrrolidin-2-yl)acetic acid]		< 2000 nM	> 10000 nM	
O=C(O)COC[C@@H]1C[C@H](F)CN1c1cc(-n2ccnc2)c2ccc(Cl)c(Cl)c2n1 [I-706]	< 2000 nM	< 2000 nM		
O=C(O)CCOC[C@@H]1C[C@H](O)CN1c1cc(-n2ccnc2)c2ccc(Cl)c(Cl)c2n1 [I-702]	2000 to 10000 nM	< 2000 nM		
O=C(O)COCC[C@@H]1CCCN1c1cc(-n2ccnc2)c2ccc(Cl)c(Cl)c2n1 [I-668]	< 2000 nM	< 2000 nM		
O=C(O)CCOCC1CCCCCN1c1cc(-n2ccnc2)c2ccc(Cl)c(Cl)c2n1 (stereo not shown) [I-865]		< 2000 nM	< 2000 nM	
O=C(O)[C@@H]1[C@H](O)CCN1c1cc(-n2ccnc2)c2ccc(Cl)c(Cl)c2n1 [I-429]	> 10000 nM			< 2000 nM
O=C(O)CCOCCN(CCOCCC(=O)O)c1cc(-n2ccnc2)c2ccc(Cl)c(Cl)c2n1 [I-839]		< 2000 nM	> 10000 nM	
COC(=O)[C@@H]1C[C@H](F)CN1c1cc(-n2ccnc2)c2ccc(Cl)c(Cl)c2n1 [I-575]	2000 to 10000 nM	2000 to 30000 nM		
O=C(O)CCOC[C@@H]1[C@@H]2CC2CN1c1cc(-n2ccnc2)c2ccc(Cl)c(Cl)c2n1 (stereo in doubt) [I-809]			< 2000 nM	
O=C(O)C1CC[C@H](c2ccccc2)N1c1cc(-n2ccnc2)c2ccc(Cl)c(Cl)c2n1 (stereo partly shown) [I-487]	2000 to 10000 nM			

Other lines, results leading:

IC50 [1, 3]	IC50 [2, 4]	IC50 [1, 5]	IC50 [2, 6]	SMILES
> 10000 nM	< 2000 nM			O=C(O)CCOCCNc1cc(-n2ccnc2)c2ccc(Cl)c(Cl)c2n1 [I-693]
2000 to 10000 nM	< 2000 nM			C[C@H]1C[C@@H](C(=O)O)N(c2cc(-n3ccnc3)c3ccc(Cl)c(Cl)c3n2)C1 [I-477]
> 10000 nM			< 2000 nM	NC(=O)[C@@H]1CCCN1c1cc(-n2ccnc2)c2ccc(Cl)c(Cl)c2n1 [I-448]
	2000 to 30000 nM	> 10000 nM		CCOC(=O)[C@@H]1[C@@H](O)[C@H](C)CN1c1cc(-n2ccnc2)c2ccc(Cl)c(Cl)c2n1 [I-779]
	> 30000 nM	> 10000 nM		COC(=O)CCN(C)C[C@@H]1CCCN1c1cc(-n2ccnc2)c2ccc(Cl)c(Cl)c2n1 [I-755, methyl (S)-3-(((1-(7,8-dichloro-4-(1H-imidazol-1-yl)quinolin-2-yl)pyrrolidin-2-yl)methyl)(methyl)amino)propanoate]
< 2000 nM	< 2000 nM			O=C(O)CCOC[C@@H]1CCCN1c1cc(-c2cn[nH]c2)c2ccc(Cl)c(Cl)c2n1 [I-670]
	< 2000 nM	< 2000 nM		O=C(O)C1CCCC1OC[C@@H]1CCCN1c1cc(-n2ccnc2)c2ccc(Cl)c(Cl)c2n1 (stereo partly shown) [I-816]
< 2000 nM	2000 to 30000 nM			COC(=O)/C=C/C[C@@H]1CCCN1c1cc(-n2ccnc2)c2ccc(Cl)c(Cl)c2n1 [I-686]
	< 2000 nM	> 10000 nM		O=C(O)c1cnn(CCNc2cc(-n3ccnc3)c3ccc(Cl)c(Cl)c3n2)c1 [I-889]
	< 2000 nM	< 2000 nM		O=C(O)CCOCC1CN(c2cc(-n3ccnc3)c3ccc(Cl)c(Cl)c3n2)CCCO1 (stereo not shown) [I-867]
< 2000 nM	< 2000 nM			CN(CCCOCCC(=O)O)c1cc(-n2ccnc2)c2ccc(Cl)c(Cl)c2n1 [I-692]
2000 to 10000 nM	< 2000 nM			O=C(O)CCOC[C@H]1CCCN1c1cc(-n2ccnc2)c2ccc(Cl)c(Cl)c2n1 [I-674]
	< 2000 nM	< 2000 nM		O=C(O)CCOC[C@@H]1CCCN1c1cc(-n2ccnc2)c2ccc(Cl)c(Br)c2n1 [I-862]
2000 to 10000 nM	< 2000 nM			NC(=O)CNC(=O)C[C@@H]1CCCN1c1cc(-n2ccnc2)c2ccc(Cl)c(Cl)c2n1 [I-539]
< 2000 nM	< 2000 nM			CN(CCOCCC(=O)O)c1cc(-n2ccnc2)c2ccc(Cl)c(Cl)c2n1 [I-694]
	< 2000 nM	> 10000 nM		O=C(O)C[C@@H]1[C@H](O)CCN1c1cc(-n2ccnc2)c2ccc(Cl)c(Cl)c2n1 [I-781, 2-((2R,3R)-1-(7,8-dichloro-4-(1H-imidazol-1-yl)quinolin-2-yl)-3-hydroxypyrrolidin-2-yl)acetic acid]
	< 2000 nM	2000 to 10000 nM		O=C(O)CCCCNc1cc(-n2ccnc2)c2ccc(Cl)c(Cl)c2n1 [I-835]
